Experiments:
[1] = tested on: Sprague-Dawley rats, middle cerebral artery occlusion (MCAo); experiment: Experimental ischemic stroke, 2 h middle cerebral artery occlusion (MCAo); type: in vivo, rat; conditions: for reduction of total lesion volume compared to CSF-treated group: T2WI on day 7, 5 μg/50 μl into right lateral ventricle 1 h after 2 h of MCAo; for IgG staining in the cortex / IgG staining intensity compared with the CSF-treated group: at 7 days; for IgG immunoreactivity in cortex, subcortex and whole hemisphere (total): versus the vehicle group (FIG. 22B); for IgG staining intensity compared with the CSF-treated group: ipsilateral hemisphere
Description: Middle cerebral artery occlusion and cannula implantation into the right lateral ventricle: Male Sprague-Dawley rats (Charles River Lab., Wilmington, Mass.) weighing 280-340 g were fasted overnight but allowed free access to water. Atropine sulfate (0.5 mg/kg, i.p.) was injected 10 mins before anesthesia. Anesthesia was induced with 3% isoflurane in a mixture of 70% nitrous oxide and 30% oxygen. All rats were orally intubated and mechanically ventilated. During ventilation, the animals were paralyzed with pancuronium bromide (0.6 mg/kg, i.p.). The catheters were implanted into the right femoral artery and vein for the blood sampling and infusion of drug. Serial analyses of arterial blood gases, plasma glucose, arterial blood pressure and heart beating rate were conducted before and during surgical procedure. Rectal (CMA/150 Temperature Controller, CMA/Microdialysis AB, Stockholm, Sweden) and cranial (temporalis muscle; Omega Engineering, Stamford, Conn.) temperatures were closely monitored before, during and after MCAo. Rectal temperature and body weight were monitored daily until sacrifice.
Rats underwent 2 h of right middle cerebral artery occlusion (MCAo) by an intraluminal-filament. In brief, the right common carotid artery (CCA) bifurcation was exposed through a midline neck incision and the occipital artery branches of the external carotid artery were isolated, ligated and dissected. After careful isolation of the internal carotid artery (ICA), a 3-0 monofilament coated with poly-L-lysine was advanced through the ICA to the MCA until mild resistance was felt. The neck incision was closed with a silk suture and the animals were then allowed to recover. After 2 h of MCAo, rats were re-anesthetized with the same anesthetic combination. Temperature probes were re-inserted, and intraluminal sutures were carefully removed. The animals given free access to food and water for 7 days.
Thirty minutes after suture removal, a brain infusion cannula was implanted into the right lateral ventricle for treatment administration in each rat. Rats were anesthetized with 3% isoflurane and were secured to a stereotaxic apparatus with skull leveled between bregma and lambda. A sterile stainless steel cannula (5-mm long) was implanted into the lateral ventricle using the stereotaxic coordinates (0.2 mm caudal to bregma, 2 mm lateral to midline, and 5 mm below the dura). Cannulas were removed after treatment was completed.
Treatment: Elovanoids (ELV) as sodium salts (Na) or methyl esters (Me) were dissolved in artificial cerebral spinal fluid (CSF) and administered into right lateral ventricle 1 hour after 2 h of MCAo. The following ELVs were used: ELV-N32-Na, ELV-N32-Me, ELV-N34-Na and ELV-N34-Me (5 μg/50 μl) or CSF (50 μl). All treatments were administered by a researcher blinded to the treatment groups.
Neurological/Behavioral Tests: Behavioral tests were performed by an observer blinded to the treatment groups at 60 mins (during MCAo) and then on days 1, 2, 3 and 7 after MCAo. The battery consisted of two tests that have been used previously to evaluate various aspects of neurologic function: (1) the postural reflex test, to examine upper body posture while the animal is suspended by the tail; and (2) the forelimb placing test, to examine sensorimotor integration in forelimb placing responses to visual, tactile and proprioceptive stimuli. Neurological function was graded on a scale of 0-12 (normal score=0, maximal score=12).
Magnetic resonance imaging (MRI) acquisition and analysis of total lesion, core and penumbra volumes: High resolution ex vivo MRI was performed on 4% paraformaldehyde-fixed brains on day 7 using an 11.7T Bruker Advance 8.9 cm horizontal bore instrument equipped with an 89 mm (ID) receiver coil (Bruker Biospin, Billerica, Mass.). T2 weighted images (T2WI), diffusion weighted images (DWI), 3D volumes, and apparent diffusion coefficient (ADC) maps were collected. T2 and ADC maps were computed from T2WI and DWI, respectively. […]

[2] = tested on: ARPE-19 cells; experiment: UOS-induced apoptosis in ARPE-19 cells (Hoechst-positive pyknotic cells); type: cell-based, human; conditions: for UOS-induced apoptosis: 200 nM (FIG. 10C); for UOS-induced apoptotic cell death, concentration-dependent: 50-500 nM (FIG. 10G); for concentration of highest inhibition of UOS-induced apoptosis / concentration of lowest inhibition of UOS-induced apoptosis: tested 50-500 nM; for protection against UOS: free fatty acids (FIGS. 7A and 7B)
Description: ARPE19 cells at 75-80% confluence (72 h growth in DMEM/F12+10% FBS) in 6-well plates were serum-starved for 8 h before exposure. The serum-starved cells were treated with TNF-α (Sigma-Aldrich, St. Louis, Mo.) (10 ng/ml) and H2O2 (600 μM) to induce oxidative stress and challenged with increasing concentrations (50-500 nM) of VLC-PUFA (C32:6n3 and C34:6n3) simultaneously with oxidative stress for 16 h (apoptosis) and 6 h (Western-blot) before detection of apoptosis and harvesting for protein analysis. In some experiments, DHA at a concentration of 100 nM and 15-LOX-1 inhibitor PD146176 at a concentration of 1 μM was added to treat the RPE cells under stress. Cell extracts were made and protein concentrations adjusted by Bio-Rad (Hercules, Calif.) protein reagent and used for Western blot analysis.
(§1) To assess cell death, hRPE and ARPE-19 cells were fixed with methanol for 15 mins, washed with 1× PBS then loaded with 2 μM Hoechst dissolved in a Locke's solution (Promega) and incubated for another 15 mins before imaging. Cells were then viewed by using a Zeiss LSM 510 confocal microscope under UV fluorescence. Images were recorded and cell apoptosis was assessed by using an automated unbiased method.

[3] = tested on: primary human RPE cells; experiment: UOS-induced cell death in primary human RPE cells (Hoechst staining); type: cell-based; conditions: for UOS-induced primary human RPE cell death: UOS for 16 h + 32:6n3 or 34:6n3 (FIG. 8C); for cell death (apoptosis): UOS with H2O2 (800 μM), 16 h, VLC-PUFAs 3 μM each, NPD1 200 nM, UOS alone 50% cell death
Description: Exposure of RPE cells to UOS and VLC-PUFA: For cell viability assay experiments hRPE cells were treated concomitantly with NPD1 (200 nM), 32-6, 34-6 (3 μM each) fatty acids or both 32-6 and 34-6 simultaneously. The hRPE medium was supplemented with 3 μM of 32-6 and 34-6 for the entire duration of the experiment. 15 lox-1 inhibitor (10 μM) was added to the cells 1 hour prior the OS induction and kept throughout the experiment. Cells were fixed with 4% PFA and stained with Hoescht.
as §1
To test the efficacy of 32:6n3 and 34:6n3 VLC-PUFAs to modulate human RPE cell homeostasis and survival rates, human RPE cells undergoing UOS were incubated with both VLC-PUFAs (3 μM each) and NPD1 (200 nM) 16 h. The addition of H2O2 (800 μM) induced apoptosis (50% cell death).
hRPE cells, formerly serum deprived for 12 h, were incubated with the 15 lipoxygenase 1 (15-LOX-1) inhibitor (PD146176) (10 μM for 1 h), then bathed with 600 μM H2O2/TNF-α in conjunction with a mixture of 32:6n3 and 34:6n3 (3 μM each) for 16 h. The 15-LOX-1 inhibitor sensitizes cells; therefore, a lower concentration of H2O2 than in the cytoprotection experiment was used.

For `CC/C=C\C[C@H](O)\C=C/C=C/C=C/[C@H](O)C/C=C\C/C=C\CCCCCCCCCCCCCCC(=O)[O-].[Na+]` [ELV-N34-Na, sodium (16Z,19Z,22R,23E,25E,27Z,29S,31Z)-22,29-dihydroxytetratriaconta-16,19,23,25,27,31-hexaenoate], the “reduction of total lesion volume compared to CSF-treated group” value (“reduction of total lesion volume” below) [1] was 99%, the “IgG staining in the cortex” value [1] was “significantly less IgG staining” and the “IgG immunoreactivity in cortex, subcortex and whole hemisphere (total)” value [1] was “significantly reduced”. The UOS-induced apoptosis [2] was “attenuation of apoptosis”.

In the case of `CC/C=C\C[C@H](O)\C=C/C=C/C=C/[C@H](O)C/C=C\C/C=C\CCCCCCCCCCCCC(=O)[O-].[Na+]` [ELV-N32-Na, sodium (14Z,17Z,20R,21E,23E,25Z,27S,29Z)-20,27-dihydroxydotriaconta-14,17,21,23,25,29-hexaenoate], the “reduction of total lesion volume” value [1] is reported as 60%, the “IgG staining intensity compared with the CSF-treated group” value [1] is reported as “similar” and the UOS-induced apoptosis [2] is reported as “attenuation of apoptosis”. For the same compound, the “UOS-induced apoptotic cell death, concentration-dependent” value [2] was “attenuated”, the “concentration of highest inhibition of UOS-induced apoptosis” value [2] was 500 nM and the “concentration of lowest inhibition of UOS-induced apoptosis” value [2] was 50 nM.

For `CC/C=C\C/C=C\C/C=C\C/C=C\C/C=C\C/C=C\CCCCCCCCCCCCCCC(=O)O` [34:6n3, (16Z,19Z,22Z,25Z,28Z,31Z)-tetratriaconta-16,19,22,25,28,31-hexaenoic acid], the “UOS-induced primary human RPE cell death” value [3] was “cell death was prevented”, the “cell death (apoptosis)” value [3] was 18% and the “protection against UOS” value [2] was “elicit protection”.

In the case of `CC/C=C\C[C@H](O)\C=C/C=C/C=C/[C@H](O)C/C=C\C/C=C\CCCCCCCCCCCCC(=O)OC` [ELV-N32-Me, methyl (14Z,17Z,20R,21E,23E,25Z,27S,29Z)-20,27-dihydroxydotriaconta-14,17,21,23,25,29-hexaenoate], the “reduction of total lesion volume” value [1] is reported as 56% and the “IgG staining intensity compared with the CSF-treated group” value [1] is reported as “similar”.

With `CC/C=C\C[C@H](O)\C=C/C=C/C=C/[C@H](O)C/C=C\C/C=C\CCCCCCCCCCCCCCC(=O)OC` [ELV-N34-Me, methyl (16Z,19Z,22R,23E,25E,27Z,29S,31Z)-22,29-dihydroxytetratriaconta-16,19,23,25,27,31-hexaenoate] the “reduction of total lesion volume” value [1] was 91%, the “IgG staining in the cortex” value [1] was “significantly less IgG staining” and the “IgG immunoreactivity in cortex, subcortex and whole hemisphere (total)” value [1] was “significantly reduced”. The “UOS-induced apoptotic cell death, concentration-dependent” value [2] was “attenuated”, the “concentration of highest inhibition of UOS-induced apoptosis” value [2] was 500 nM and the “concentration of lowest inhibition of UOS-induced apoptosis” value [2] was 50 nM.

With `CC/C=C\C/C=C\C/C=C\C/C=C\C/C=C\C/C=C\CCCCCCCCCCCCC(=O)O` [32:6n3, (14Z,17Z,20Z,23Z,26Z,29Z)-dotriaconta-14,17,20,23,26,29-hexaenoic acid] the “UOS-induced primary human RPE cell death” value [3] was “cell death was prevented”, the “cell death (apoptosis)” value [3] was 4% and the “protection against UOS” value [2] was “elicit protection”.
